Values of other authors, collected in patent publication US20070197530A1, “Amido compounds and their use as pharmaceuticals” (priority 2006, published 2007).

Assays:
[1] = test system: pancreatic islet cells of ob/ob mice
[2] = test system: healthy volunteers; details: after seven days of carbenoxolone treatment
[3] = test system: bone nodule formation
[4] = test system: primary hippocampal cells

In the case of `CC1(C)[C@@H](OC(=O)CCC(=O)O)CC[C@]2(C)[C@H]3C(=O)C=C4[C@@H]5C[C@@](C)(C(=O)O)CC[C@]5(C)CC[C@@]4(C)[C@]3(C)CC[C@@H]12` [carbenoxolone], the glucose-stimulated insulin release [1] is listed as “improves glucose-stimulated insulin release”, the “IOP reduced by” value [2] is listed as 18% and the “negative effects of glucocorticoids on bone nodule formation” value [3] is listed as “attenuate the negative effects of glucocorticoids on bone nodule formation”. For the same compound, the “protection from glucocorticoid-mediated exacerbation of excitatory amino acid neurotoxicity” value [4] was “protects the cells from glucocorticoid-mediated exacerbation of excitatory amino acid neurotoxicity”.
